Measured values from patent publication US9439432B2, “Phenylisoxazoline-based compound having herbicidal activity and use thereof” (MOGHU RESEARCH CENTER LTD, priority 2011, dated 2016).

Columns and labels:
Type in all cases: in vivo
Corn [1] = experiment: Pre-emergence treatment, phytotoxicity to corn; conditions: 500 g/ha, 4 weeks after spraying, scale 0 to 10 (0: no effects, 10: complete death)
Outline: (§1)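 Crops and grass weeds were sown in a 1:1 sandy loam/bed soil mix, irrigated, and sprayed one day later at 300 L/ha with compound in acetone plus an equal volume of 0.2% Tween 20. Rates were 500, 250, 125 and 62.5 g/ha. Injury was scored 0–10 (10 = complete death) after four weeks.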

Wheat [2] = experiment: Post-emergence treatment, phytotoxicity to wheat; conditions: post-emergence (about 3 leaf stage), 1,000 g/ha, 4 weeks after spraying, scale 0 to 10 (0: no effects, 10: complete death)
Outline: (§2)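 Grass weeds and crops were sown in 1:1 sandy loam/bed soil pots and sprayed at about the 3-leaf stage (second week) at 1,000, 500, 250 and 125 g/ha, 300 L/ha, in acetone plus equal volume 0.2% (v/v) Tween 20. Greenhouse at 25–30 °C day, 15–25 °C night; scored 0–10 (0 no effect, 10 complete death) four weeks after spraying.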

Echinochloa crusgalli [3] = experiment: Post-emergence treatment, herbicidal efficacy on barnyardgrass; conditions: 4 weeks after spraying, scale 0 to 10
Outline: as §2

Alopecurus myosuroides [4] = experiment: Pre-emergence treatment, herbicidal efficacy on blackgrass; conditions: 4 weeks after spraying, scale 0 to 10
Outline: as §1

Echinochloa crusgalli [5] = experiment: Pre-emergence treatment, herbicidal efficacy on barnyardgrass; conditions: 4 weeks after spraying
Outline: as §1

Rice [6] = experiment: Pre-emergence treatment, phytotoxicity to rice; conditions: 500 g/ha, 4 weeks after spraying, scale 0 to 10 (0: no effects, 10: complete death)
Outline: as §1

Digitaria sanguinalis [7] = experiment: Post-emergence treatment, herbicidal efficacy on large crabgrass; conditions: 4 weeks after spraying, scale 0 to 10
Outline: as §2

Digitaria sanguinalis [8] = experiment: Pre-emergence treatment, herbicidal efficacy on large crabgrass; conditions: 4 weeks after spraying, scale 0 to 10
Outline: as §1

Rice [9] = experiment: Post-emergence treatment, phytotoxicity to rice; conditions: post-emergence (about 3 leaf stage), 1,000 g/ha, 4 weeks after spraying, scale 0 to 10 (0: no effects, 10: complete death)
Outline: as §2

Cotton [10] = experiment: Pre-emergence treatment, phytotoxicity to cotton; conditions: 500 g/ha, 4 weeks after spraying, scale 0 to 10 (0: no effects, 10: complete death)
Outline: as §1

Corn [11] = experiment: Post-emergence treatment, phytotoxicity to corn; conditions: post-emergence (about 3 leaf stage), 1,000 g/ha, 4 weeks after spraying, scale 0 to 10 (0: no effects, 10: complete death)
Outline: as §2

Poa annua [12] = experiment: Post-emergence treatment, herbicidal efficacy on annual bluegrass; conditions: 4 weeks after spraying, scale 0 to 10
Outline: as §2

Cotton [13] = experiment: Post-emergence treatment, phytotoxicity to cotton; conditions: post-emergence (about 3 leaf stage), 1,000 g/ha, 4 weeks after spraying, scale 0 to 10 (0: no effects, 10: complete death)
Outline: as §2

Soybean [14] = experiment: Pre-emergence treatment, phytotoxicity to soybean; conditions: 500 g/ha, 4 weeks after spraying, scale 0 to 10 (0: no effects, 10: complete death)
Outline: as §1

Poa annua [15] = experiment: Pre-emergence treatment, herbicidal efficacy on annual bluegrass; conditions: 4 weeks after spraying, scale 0 to 10
Outline: as §1

Wheat [16] = experiment: Pre-emergence treatment, phytotoxicity to wheat; conditions: 500 g/ha, 4 weeks after spraying, scale 0 to 10 (0: no effects, 10: complete death)
Outline: as §1

Soybean [17] = experiment: Post-emergence treatment, phytotoxicity to soybean; conditions: post-emergence (about 3 leaf stage), 1,000 g/ha, 4 weeks after spraying, scale 0 to 10 (0: no effects, 10: complete death)
Outline: as §2

[18] = tested on: grass weeds including barnyardrass, large crabgrass, and annual bluegrass; experiment: Pre-emergence treatment, grass weeds overall; conditions: relative to reference compounds
Protocol: (§3) A rectangular plastic pot having a surface area of 300 cm^2 was filled with sandy loam soil and mixed bed soil which were mixed at a ratio of 1:1, and then, barnyardrass (Echinochloa crusgalli), large crabgrass (Digitaria sanguinalis), blackgrass (Alopecurus myosuroides), and annual bluegrass (Poa annua), which are grass weeds, were seeded thereto. In a pot that was prepared as described above, seeds of corn, soybean, cotton, wheat, and rice were seeded. The pots were irrigated, and one day after, chemicals were sprayed thereto. The spraying was performed by using a track sprayer (R&D Sprayer, USA) equipped with a Teejet 8002 (Spraying Systems Co., USA) nozzle, and a spraying amount was adjusted at 300 L/ha. A spraying solution was prepared by dissolving test materials or references in acetone and adding the same amount of 0.2%(v/v) tween 20 aqueous solution thereto. Application rates were 500, 250, 125, and 62.5 g/ha. The pots were placed in a greenhouse in which during day, the temperature was maintained at a temperature of 25 to 30° C., and during night, the temperature was maintained at a temperature of 15 to 25° C., and the pots were periodically irrigated. Four weeks after the spraying the test materials or References, effects and phytotoxicity of the respective weeds and crops were evaluated in a scale of 0 to 10 (0: no effects, 10: complete death), and results thereof are shown in Table 4 below.

[19] = tested on: barnyardgrass, large crabgrass, and annual bluegrass; experiment: Post-emergence treatment, grass weeds overall; conditions: 250 g/ha
Protocol: as §3
Pots containing crops and weeds were prepared in the same manner as in Example 7, and then, in the second week in which crops and weeds entered into about 3 leaf stage, the test materials and the references were sprayed thereto in the same manner as described above. The rates were 1,000, 500, 250, and 125 g/ha. Four weeks after the spraying of the test materials or the references, herbicidal efficacy and phytotoxicity to the respective weeds and crops were evaluated in a scale of 0 to 10 (0: no effects, 10: complete death).

Alopecurus myosuroides [20] = experiment: Post-emergence treatment, herbicidal efficacy on blackgrass; conditions: 4 weeks after spraying, scale 0 to 10
Outline: as §2

Structure (SMILES): CC1(COCc2c(F)cccc2F)CC(c2ccccc2C(F)(F)F)=NO1 (centres unmarked) [Compound 5, 5-((2,6-difluorobenzyloxy)methyl)-5-methyl-3-(2-(trifluoromethyl)phenyl)-4,5-dihydroisoxazole]
- Phytotoxicity, Corn (Corn [1]): 3
- Phytotoxicity, Wheat (Wheat [2]): 0
- Herbicidal efficacy, Echinochloa crusgalli (Echinochloa crusgalli [3]; post-emergence, 125 g/ha): 6
- Herbicidal efficacy, Echinochloa crusgalli (Echinochloa crusgalli [3]; post-emergence, 250 g/ha): 8
- Herbicidal efficacy, Echinochloa crusgalli (Echinochloa crusgalli [3]; post-emergence, 500 g/ha): 10
- Herbicidal efficacy, Echinochloa crusgalli (Echinochloa crusgalli [3]; post-emergence, 1,000 g/ha): 10
- Herbicidal efficacy, Alopecurus myosuroides (Alopecurus myosuroides [4]; 62.5 g/ha): 5
- Herbicidal efficacy, Alopecurus myosuroides (Alopecurus myosuroides [4]; 125 g/ha): 6
- Herbicidal efficacy, Alopecurus myosuroides (Alopecurus myosuroides [4]; 250 g/ha): 7
- Herbicidal efficacy, Alopecurus myosuroides (Alopecurus myosuroides [4]; 500 g/ha): 8
- Herbicidal efficacy, Echinochloa crusgalli (Echinochloa crusgalli [5]; 62.5 g/ha, scale 0 to 10): 10
- Herbicidal efficacy, Echinochloa crusgalli (Echinochloa crusgalli [5]; 125 g/ha, scale 0 to 10): 10
- Herbicidal efficacy, Echinochloa crusgalli (Echinochloa crusgalli [5]; 250 g/ha, scale 0 to 10): 10
- Herbicidal efficacy, Echinochloa crusgalli (Echinochloa crusgalli [5]; 500 g/ha, scale 0 to 10 (0: no effects, 10: complete death)): 10
- Phytotoxicity, Rice (Rice [6]): 0
- Herbicidal efficacy, Digitaria sanguinalis (Digitaria sanguinalis [7]; post-emergence, 125 g/ha): 6
- Herbicidal efficacy, Digitaria sanguinalis (Digitaria sanguinalis [7]; post-emergence, 250 g/ha): 8
- Herbicidal efficacy, Digitaria sanguinalis (Digitaria sanguinalis [7]; post-emergence, 500 g/ha): 10
- Herbicidal efficacy, Digitaria sanguinalis (Digitaria sanguinalis [7]; post-emergence, 1,000 g/ha): 10
- Herbicidal efficacy, Digitaria sanguinalis (Digitaria sanguinalis [8]; 62.5 g/ha): 10
- Herbicidal efficacy, Digitaria sanguinalis (Digitaria sanguinalis [8]; 125 g/ha): 10
- Herbicidal efficacy, Digitaria sanguinalis (Digitaria sanguinalis [8]; 250 g/ha): 10
- Herbicidal efficacy, Digitaria sanguinalis (Digitaria sanguinalis [8]; 500 g/ha): 10
- Phytotoxicity, Rice (Rice [9]): 0
- Phytotoxicity, Cotton (Cotton [10]): 1
- Phytotoxicity, Corn (Corn [11]): 5
- Herbicidal efficacy, Poa annua (Poa annua [12]; post-emergence, 125 g/ha): 6
- Herbicidal efficacy, Poa annua (Poa annua [12]; post-emergence, 250 g/ha): 7
- Herbicidal efficacy, Poa annua (Poa annua [12]; post-emergence, 500 g/ha): 8
- Herbicidal efficacy, Poa annua (Poa annua [12]; post-emergence, 1,000 g/ha): 10
- Phytotoxicity, Cotton (Cotton [13]): 0
- Phytotoxicity, Soybean (Soybean [14]): 2
- Herbicidal efficacy, Poa annua (Poa annua [15]; 62.5 g/ha): 9
- Herbicidal efficacy, Poa annua (Poa annua [15]; 125 g/ha): 9
- Herbicidal efficacy, Poa annua (Poa annua [15]; 250 g/ha): 9
- Herbicidal efficacy, Poa annua (Poa annua [15]; 500 g/ha): 10
- Phytotoxicity, Wheat (Wheat [16]): 0
- Phytotoxicity, Soybean (Soybean [17]): 2
- efficacy stronger than the References [18]: about 8 times
- suppression of barnyardgrass, large crabgrass, and annual bluegrass [19]: greatly suppressed
- Herbicidal efficacy, Alopecurus myosuroides (Alopecurus myosuroides [20]; post-emergence, 125 g/ha): 1
- Herbicidal efficacy, Alopecurus myosuroides (Alopecurus myosuroides [20]; post-emergence, 250 g/ha): 4
- Herbicidal efficacy, Alopecurus myosuroides (Alopecurus myosuroides [20]; post-emergence, 500 g/ha): 5
- Herbicidal efficacy, Alopecurus myosuroides (Alopecurus myosuroides [20]; post-emergence, 1,000 g/ha): 9
